Results reported in patent US20220279787A1, “a-Substituted Phenyl Structure-Containing Compound, Preparation Method Thereof, and Disinfectant” (Henan Ruibo Pharmaceutical Technology Co. Ltd., priority 2019, published 2022).

Key:
Type in all cases: cell-based
[1] = system: Pseudomonas aeruginosa ATCC 27853; test: Suspension quantitative sterilization experiment, Pseudomonas aeruginosa ATCC 27853; conditions: for Activity (killing logarithmic value): suspension method, action time 30 min
Method: (§1) (5) Operation Method of Suspension Quantitative Experiment:
(§2) a. The freeze-dried strain tube was provided, opened up under an aseptic condition, and an appropriate amount of nutrient broth was added thereto with a capillary pipette. The strain was melted and dispersed by gently blowing and sucking several times. A test tube containing 5.0 mL-10.0 mL of nutrient broth medium was provided, and a small amount of bacterial suspension was dropped thereto, and incubated at 37° C. for 18 h-24 h. The bacterial suspension of the first generation culture was taken by using an inoculation loop, and streaked and inoculated onto a nutrient agar medium plate, and incubated at 37° C. for 18 h-24 h. The typical colonies from the second generation culture was picked out, inoculated onto a nutrient agar slant, and incubated at 37° C. for 18 h-24 h, obtaining the third generation culture.
(§3) b. The monoclonal strains of the third generation culture of Escherichia coli ATCC 25922, Staphylococcus aureus ATCC 29213, and Pseudomonas aeruginosa ATCC 27853 were picked out respectively and placed in 3 mL of NMB. The strains were shaken in a constant temperature culture shaker for 3 h with a rotation speed of 220 rpm, obtaining a bacterial suspension with a concentration of (1-5)×10^8 CFU/mL.
(§4) c. 0.5 mL of bacterial suspension was added to a sterile test tube, and 0.5 mL of an organic interfering substance (0.03 mol/L PBS buffer) was then added thereto. They were mixed to be uniform, and placed in a water bath at 20° C.±1° C. for 5 min. 4.0 mL of the sample to be tested prepared in step (1) was drawn with a sterile pipette and injected into the mixed solution, mixed quickly, and the time was recorded immediately.
(§5) d. After the experimental bacteria interacted with the sample to be tested for the predetermined time of 1 min, 5 min, 15 min and 30 min. 0.5 mL of the mixture of the experimental bacteria and the sample to be tested was drawn respectively and added to 4.5 mL of a neutralizer, and mixed to be uniform.
(§6) e. After 10 min of neutralization, 1.0 mL of the sample solution was drawn, and the number of viable bacteria was determined by viable count method. After the viable count method, sample solution of each pipette was inoculated onto 2 plates. When the number of colonies growing on the plate was large, 10-fold dilution was performed, and then the viable bacteria was cultured and counted.
(§7) f. At the same time, PBS buffer was used to replace the sample to be tested, and a parallel test was performed as a positive control.
(§8) g. All test samples were placed in a 37° C. incubator overnight, and the results were observed.
(§9) h. The experiment was repeated for 3 times, the concentration of viable bacteria (CFU/mL) of each group was calculated, and converted to logarithmic value (N), and then the killing logarithmic value was calculated according to the following equation:
(§10) Killing logarithmic value (KL)=the logarithmic value of the average viable bacteria concentration of the control group (No)−the logarithmic value of the viable bacteria concentration of the test group (Nx).
(§11) When calculating the killing logarithmic value, two digits after the decimal point was kept, and digital round-off was allowed.

[2] = system: Bacillus subtilis var. niger spores ATCC 9372; test: Suspension quantitative experiment, Bacillus subtilis var. niger spores; conditions: Bacillus subtilis, ATCC9372, 0.5 h, read-out: Activity (killing logarithmic value)
Method: (4) Operation Method of Suspension Quantitative Experiment:
a. The Bacillus subtilis var. niger spores ATCC 9372 freeze-dried strain tube was provided, opened up under an aseptic condition, and an appropriate amount of nutrient broth was added thereto with a capillary pipette. The strain was melted and dispersed by gently blowing and sucking several times. A test tube containing 5.0 mL-10.0 mL of nutrient broth medium was provided, and a small amount of bacterial suspension was dropped thereto, and incubated at 37° C. for 18 h-24 h. The bacterial suspension of the first generation culture was taken by using an inoculation loop.
b. The monoclonal strains of the first generation culture were picked out and placed in 3 mL of NMB. The strains were shaken in a constant temperature culture shaker for 3 h with a rotation speed of 220 rpm, obtaining a bacterial suspension with a concentration of (1-5)×10^8 CFU/mL.
as §4
d. After the experimental bacteria interacted with the sample to be tested for the predetermined time. 0.5 mL of the mixture of the experimental bacteria and a disinfectant was drawn respectively and added to 4.5 mL of a neutralizer, and mixed to be uniform.
as §6
h. At the same time, PBS buffer was used to replace the sample to be tested, and a parallel test was performed as a positive control.
f. All test samples were placed in a 37° C. incubator overnight, and the results were observed.
g. The experiment was repeated for 3 times, the concentration of viable bacteria (CFU/mL) of each group was calculated, and converted to logarithmic value (N), and then the killing logarithmic value was calculated according to the following equation:
as §10, §11

[3] = system: Escherichia coli ATCC 25922; test: Suspension quantitative sterilization experiment, Escherichia coli ATCC 25922; conditions: for Activity (killing logarithmic value): suspension method, action time 30 min
Method: as §1, §2, §3, §4, §5, §6, §7, §8, §9, §10, §11

[4] = system: Staphylococcus aureus ATCC 29213; test: Suspension quantitative sterilization experiment, Staphylococcus aureus ATCC 29213; conditions: for Activity (killing logarithmic value): suspension method, action time 30 min
Method: as §1, §2, §3, §4, §5, §6, §7, §8, §9, §10, §11

Structure (SMILES): Cc1ccc(C(C(=O)O)c2ccc(O)cc2)cc1 (stereo not shown) [Example 4, 2-(4-hydroxyphenyl)-2-p-tolueneacetic acid]
- Activity (killing logarithmic value) ([1]; 6.25 g/L): 0.78
- log reduction at 15000 µg/mL [2]: 1.54
- Activity (killing logarithmic value) ([3]; 6.25 g/L): 0.78
- Activity (killing logarithmic value) ([4]; 6.25 g/L): 0.75

Structure (SMILES): CNC(=O)C(c1ccncc1)c1ccc(O)c(O)c1 (stereo not shown) [Example 6, 2-(3,4-dihydroxyphenyl)-N-methyl-2-(4-pyridyl)acetamide]
- Activity (killing logarithmic value) ([1]; 6.25 g/L): 0.31
- log reduction at 15000 µg/mL [2]: 0.76
- Activity (killing logarithmic value) ([3]; 6.25 g/L): 1.64
- Activity (killing logarithmic value) ([4]; 6.25 g/L): 1.78

Structure (SMILES): O=C(O)C(c1ccccc1)c1ccccc1 [Example 7, 2,2-diphenylacetic acid]
- Activity (killing logarithmic value) ([1]; 6.25 g/L): 1.29
- log reduction at 15000 µg/mL [2]: 1.97
- Activity (killing logarithmic value) ([3]; 6.25 g/L): 1.02
- Activity (killing logarithmic value) ([4]; 6.25 g/L): 1.45

Structure (SMILES): O=C(O)C(c1ccc(O)c(O)c1)c1ccc(O)c(O)c1 [Example 8, 2,2-di-(3,4-dihydroxyphenyl)acetic acid]
- Activity (killing logarithmic value) ([1]; 6.25 g/L): 0.88
- log reduction at 15000 µg/mL [2]: 2.13
- Activity (killing logarithmic value) ([3]; 6.25 g/L): 1.73
- Activity (killing logarithmic value) ([4]; 6.25 g/L): 0.91

Structure (SMILES): Oc1ccccc1 [Phenol solution, Phenol]
- Killing logarithmic value ([1]; 0.15 g/L, 1 min): 0.46
- Killing logarithmic value ([1]; 0.15 g/L, 5 min): 0.51
- Killing logarithmic value ([1]; 0.15 g/L, 15 min): 0.57
- Killing logarithmic value ([1]; 0.15 g/L, 30 min): 0.67
- Killing logarithmic value ([1]; 0.31 g/L, 1 min): 0.76
- Killing logarithmic value ([1]; 0.31 g/L, 5 min): 0.79
- Killing logarithmic value ([1]; 0.31 g/L, 15 min): 0.84
- Killing logarithmic value ([1]; 0.31 g/L, 30 min): 0.93
- Killing logarithmic value ([1]; 0.78 g/L, 1 min): 0.99
- Killing logarithmic value ([1]; 0.78 g/L, 5 min): 1.08
- Killing logarithmic value ([1]; 0.78 g/L, 15 min): 1.12
- Killing logarithmic value ([1]; 0.78 g/L, 30 min): 1.16
- Killing logarithmic value ([1]; 1.56 g/L, 1 min): 1.21
- Killing logarithmic value ([1]; 1.56 g/L, 5 min): 1.25
- Killing logarithmic value ([1]; 1.56 g/L, 15 min): 1.34
- Killing logarithmic value ([1]; 1.56 g/L, 30 min): 1.65
- Killing logarithmic value ([1]; 3.12 g/L, 1 min): 1.56
- Killing logarithmic value ([1]; 3.12 g/L, 5 min): 1.86
- Killing logarithmic value ([1]; 3.12 g/L, 15 min): 1.92
- Killing logarithmic value ([1]; 3.12 g/L, 30 min): 1.98
- Killing logarithmic value ([1]; 6.25 g/L, 1 min): 3.07
- Killing logarithmic value ([1]; 6.25 g/L, 5 min): 3.65
- Killing logarithmic value ([1]; 6.25 g/L, 15 min): 4.55
- Killing logarithmic value ([1]; 6.25 g/L, 30 min): 5.25
- Killing logarithmic value ([3]; 0.15 g/L, 1 min): 0.21
- Killing logarithmic value ([3]; 0.15 g/L, 5 min): 0.29
- Killing logarithmic value ([3]; 0.15 g/L, 15 min): 0.43
- Killing logarithmic value ([3]; 0.15 g/L, 30 min): 0.47
- Killing logarithmic value ([3]; 0.31 g/L, 1 min): 0.29
- Killing logarithmic value ([3]; 0.31 g/L, 5 min): 0.31
- Killing logarithmic value ([3]; 0.31 g/L, 15 min): 0.46
- Killing logarithmic value ([3]; 0.31 g/L, 30 min): 0.58
- Killing logarithmic value ([3]; 0.78 g/L, 1 min): 0.32
- Killing logarithmic value ([3]; 0.78 g/L, 5 min): 0.46
- Killing logarithmic value ([3]; 0.78 g/L, 15 min): 0.63
- Killing logarithmic value ([3]; 0.78 g/L, 30 min): 0.79
- Killing logarithmic value ([3]; 1.56 g/L, 1 min): 0.47
- Killing logarithmic value ([3]; 1.56 g/L, 5 min): 0.65
- Killing logarithmic value ([3]; 1.56 g/L, 15 min): 0.78
- Killing logarithmic value ([3]; 1.56 g/L, 30 min): 0.99
- Killing logarithmic value ([3]; 3.12 g/L, 1 min): 0.69
- Killing logarithmic value ([3]; 3.12 g/L, 5 min): 0.76
- Killing logarithmic value ([3]; 3.12 g/L, 15 min): 0.81
- Killing logarithmic value ([3]; 3.12 g/L, 30 min): 1.02
- Killing logarithmic value ([3]; 6.25 g/L, 1 min): 3.57
- Killing logarithmic value ([3]; 6.25 g/L, 5 min): 3.69
- Killing logarithmic value ([3]; 6.25 g/L, 15 min): 5.86
- Killing logarithmic value ([3]; 6.25 g/L, 30 min): 6.17
- Killing logarithmic value ([4]; 0.15 g/L, 1 min): 0.45
- Killing logarithmic value ([4]; 0.15 g/L, 5 min): 0.48
- Killing logarithmic value ([4]; 0.15 g/L, 15 min): 0.55
- Killing logarithmic value ([4]; 0.15 g/L, 30 min): 0.73
- Killing logarithmic value ([4]; 0.31 g/L, 1 min): 0.67
- Killing logarithmic value ([4]; 0.31 g/L, 5 min): 0.69
- Killing logarithmic value ([4]; 0.31 g/L, 15 min): 0.73
- Killing logarithmic value ([4]; 0.31 g/L, 30 min): 0.86
- Killing logarithmic value ([4]; 0.78 g/L, 1 min): 0.79
- Killing logarithmic value ([4]; 0.78 g/L, 5 min): 0.82
- Killing logarithmic value ([4]; 0.78 g/L, 15 min): 0.89
- Killing logarithmic value ([4]; 0.78 g/L, 30 min): 0.95
- Killing logarithmic value ([4]; 1.56 g/L, 1 min): 0.86
- Killing logarithmic value ([4]; 1.56 g/L, 5 min): 0.91
- Killing logarithmic value ([4]; 1.56 g/L, 15 min): 0.99
- Killing logarithmic value ([4]; 1.56 g/L, 30 min): 1.02
- Killing logarithmic value ([4]; 3.12 g/L, 1 min): 1.13
- Killing logarithmic value ([4]; 3.12 g/L, 5 min): 1.21
- Killing logarithmic value ([4]; 3.12 g/L, 15 min): 1.23
- Killing logarithmic value ([4]; 3.12 g/L, 30 min): 1.26
- Killing logarithmic value ([4]; 6.25 g/L, 1 min): 2.52
- Killing logarithmic value ([4]; 6.25 g/L, 5 min): 2.62
- Killing logarithmic value ([4]; 6.25 g/L, 15 min): 2.74
- Killing logarithmic value ([4]; 6.25 g/L, 30 min): 2.99
